Measured values published in the NIST ThermoML archive (doi:10.1016/j.jct.2005.06.011).
Numbers after ± are expanded uncertainties.

Key:
[1] = refractive index (Na D-line) (dimensionless); settings: 101.33 kPa, Liquid
[2] = 101 kPa, Liquid; for speed of sound: Linear variable-path acoustic interferometer
[3] = refractive index (Na D-line) (dimensionless); xn = mol fraction of the nth substance listed; settings: 101 kPa, Liquid, x2 = 0
[4] = xn = mol fraction of the nth substance listed; settings: 101 kPa, Liquid, x2 = 0; for speed of sound: Linear variable-path acoustic interferometer

refractive index ([1]; 298.15 K)	refractive index ([1]; 303.15 K)	refractive index ([1]; 308.15 K)	mass density ([2]; 298.15 K)	viscosity ([2]; 298.15 K)	speed of sound ([2]; 298.15 K)	mass density ([2]; 303.15 K)	viscosity ([2]; 303.15 K)	mass density ([2]; 308.15 K)	viscosity ([2]; 308.15 K)	refractive index ([3]; 298.15 K)	refractive index ([3]; 303.15 K)	refractive index ([3]; 308.15 K)	speed of sound ([4]; 298.15 K)	mass density ([4]; 298.15 K)	viscosity ([4]; 298.15 K)	mass density ([4]; 303.15 K)	viscosity ([4]; 303.15 K)	mass density ([4]; 308.15 K)	viscosity ([4]; 308.15 K)	SMILES
1.384 ± 0.0012	1.3819 ± 0.0012	1.38 ± 0.0012	809.65 ± 8.1 kg/m3	2.077 ± 0.024 mPa·s	1206 ± 4 m/s	805.5 ± 8.1 kg/m3	1.809 ± 0.022 mPa·s	801.32 ± 8 kg/m3	1.595 ± 0.019 mPa·s											CCCO [propan-1-ol]
										1.384 ± 0.0012	1.3819 ± 0.0012	1.38 ± 0.0012	1206 ± 4 m/s	809.65 ± 8.1 kg/m3	2.077 ± 0.024 mPa·s	805.5 ± 8.1 kg/m3	1.809 ± 0.022 mPa·s	801.32 ± 8 kg/m3	1.595 ± 0.019 mPa·s	CCCO [propan-1-ol] + CC1CCCCC1
1.3765 ± 0.0012	1.3741 ± 0.0012	1.3716 ± 0.0012	781.05 ± 7.8 kg/m3	2.076 ± 0.024 mPa·s	1144 ± 4 m/s	776.79 ± 7.8 kg/m3	1.786 ± 0.021 mPa·s	772.43 ± 7.7 kg/m3	1.532 ± 0.018 mPa·s											CC(C)O [propan-2-ol]
										1.3765 ± 0.0012	1.3741 ± 0.0012	1.3716 ± 0.0012	1144 ± 4 m/s	781.05 ± 7.8 kg/m3	2.076 ± 0.024 mPa·s	776.79 ± 7.8 kg/m3	1.786 ± 0.021 mPa·s	772.43 ± 7.7 kg/m3	1.532 ± 0.018 mPa·s	CC(C)O [propan-2-ol] + CC1CCCCC1
